The test system of test [1] is serum calcium concentration.
Protocol: Biological Assay Of Calcitonin Analogs In Vivo
Rats were divided into four groups of seven animals, and each group was assigned at random to a dose of standard or test solution. Low and high doses were chosen from the linear portion of the dose-response curve. For the salmon calcitonin standard, the values were 0.7 and 2.1 ng. peptide/100 g. body weight (BW). This dose approximates 3 and 9 MU/100 g. BW. Peptides were given by subcutaneous injection (0.2 ml/100 g. BW) and blood was withdrawn 1 hour later for serum calcium determination. Sera are processed and analyzed within two hours of collection. Results were analyzed within two hours of collection.
The conditions of test [2]: literature value, Experientia 32(9), 1104-1106 (1976); cited from earlier work.

Where a SMILES comes first, the peptide text is derived from it. Bridges are numbered along the chain shown (N, C = ends).

As for `CC(C)C[C@H](NC(=O)[C@H](CCCCN)NC(=O)CNC(=O)[C@H](CC(C)C)NC(=O)[C@@H](NC(=O)[C@@H]1CSSC[C@H](N)C(=O)N[C@@H](CO)C(=O)N[C@@H](CC(N)=O)C(=O)N[C@@H](CC(C)C)C(=O)N[C@@H](CO)C(=O)N[C@@H]([C@@H](C)O)C(=O)N1)C(C)C)C(=O)N[C@@H](CO)C(=O)N[C@@H](CCC(N)=O)C(=O)N[C@@H](CCC(=O)O)C(=O)N[C@@H](CC(C)C)C(=O)N[C@@H](Cc1c[nH]cn1)C(=O)N[C@@H](CCCCN)C(=O)N[C@H](C(=O)N[C@@H](Cc1ccc(O)cc1)C(=O)N1CCC[C@H]1C(=O)N[C@@H](CCCNC(=N)N)C(=O)N[C@H](C(=O)N[C@@H](CC(N)=O)C(=O)N[C@H](C(=O)NCC(=O)N[C@@H](CO)C(=O)NCC(=O)N[C@H](C(=O)N1CCC[C@H]1C(N)=O)[C@@H](C)O)[C@@H](C)O)[C@@H](C)O)[C@@H](C)O` [des-Leu^19 -Gln^20 -SCT, des-19-leucine, 20-glutamine-salmon calcitonin] (H-CSNLSTCVLGKLSQELHKTYPRTNTGSGTP-NH2; disulfide 1-7), the biological potency in test [1] (rat, in vivo, sc) is 6900 IU/mg.

On to `CC(C)C[C@H](NC(=O)[C@H](CCCCN)NC(=O)CNC(=O)[C@H](CC(C)C)NC(=O)[C@@H](NC(=O)[C@@H]1CSSC[C@H](N)C(=O)N[C@@H](CO)C(=O)N[C@@H](CC(N)=O)C(=O)N[C@@H](CC(C)C)C(=O)N[C@@H](CO)C(=O)N[C@@H]([C@@H](C)O)C(=O)N1)C(C)C)C(=O)N[C@@H](CO)C(=O)N[C@@H](CCC(N)=O)C(=O)N[C@@H](CCC(=O)O)C(=O)N[C@@H](CC(C)C)C(=O)N[C@@H](Cc1c[nH]cn1)C(=O)N[C@@H](CCCCN)C(=O)N[C@@H](CC(C)C)C(=O)N[C@@H](CCC(N)=O)C(=O)N[C@H](C(=O)N[C@@H](Cc1ccc(O)cc1)C(=O)N1CCC[C@H]1C(=O)N[C@@H](CCCNC(=N)N)C(=O)N[C@H](C(=O)N[C@@H](CC(N)=O)C(=O)N[C@H](C(=O)NCC(=O)N[C@@H](CO)C(=O)NCC(=O)N[C@H](C(=O)N1CCC[C@H]1C(N)=O)[C@@H](C)O)[C@@H](C)O)[C@@H](C)O)[C@@H](C)O` [standard salmon calcitonin, salmon calcitonin], for which, in test [1] (standard used in the assay, independently determined), the “potency content of the standard” value is “greater than 4,000 IU/mg”.

“(1,7-α-L-aminosuberic acid)eel calcitonin”: the hypocalcemic potency result in test [2] is recorded as “about 3400 IU/mg”.

For “eel calcitonin [synthetic eel calcitonin]”, in test [2], the hypocalcemic potency entry is “around 4300 IU/mg”.

(Values after patent US4732969A, “Des-19-leucine, 20-glutamine-calcitonin” (Armour Pharmaceutical Corporation, priority 1986, dated 1988).)
